The values below are quoted from earlier work in patent US20040171664A1, “Compositions of cyclooxygenase-2 selective inhibitors and selective serotonin reuptake inhibitors for the treatment or prevention of a vaso-occlusive event” (Pharmacia Corporation, priority 2002, published 2004).

The test system of data set [1] is coronary intimal proliferation. The following applies: oral administration, swine model of restenosis.
In a further data set the test system is restenosis. The settings on record: orally administered, stent implanted pig arteries.
The conditions of data set [2]: both depressed and nondepressed patients.
For data set [3], the system named is vascular smooth muscle cells. The following applies: in vitro.
The test system of the next data set is platelet activation. The following applies: Pollock et al. 2000.
The conditions of data set [4]: single dose intravenous pretreatment before coronary stenting.

Turning to `CN(C)CCCO[C@@H]1[C@H]2OC(C)(C)O[C@H]2O[C@@H]1[C@H](O)CO.Cl` [aniprilose hydrochloride], the coronary intimal proliferation entry in data set [1] is listed as “did not prevent”. On to `COc1ccc(C=CC(=O)Nc2ccccc2C(=O)O)cc1OC` [tranilast, N-(3,4-dimethoxycinnamoyl) anthranilic acid], for which the rate of restenosis result in the data set with restenosis is “lower rate”. For `CNCCC=C1c2ccccc2CCc2ccccc21` [nortriptyline], the “survival of stroke patients” value in data set [2] is “increased the survival”.

Take `COc1cc(/C=C/C(=O)CC(=O)/C=C/c2ccc(O)c(OC)c2)ccc1O` [curcumin]: the “proliferation of vascular smooth muscle cells” value in data set [3] is given as “reduced”. Consider `CNCCC(Oc1ccc(C(F)(F)F)cc1)c1ccccc1` (stereo not shown) [fluoxetine], for which the “survival of stroke patients” value in data set [2] is “increased the survival”.

For `CN[C@H]1CC[C@@H](c2ccc(Cl)c(Cl)c2)c2ccccc21` [sertraline], in the data set on platelet activation, the preventing platelet activation result is on record as “particularly effective”.

With `C[C@H]1C[C@@H]2[C@H]([C@@H](O)C[C@@]3(C)[C@H]2CC[C@]3(O)C(=O)CO)[C@@]2(C)C=CC(=O)C=C12` [methylpridnisolone], the “change in minimal lumen diameter at 6 months” value in data set [4] is on record as “no effect”.
